pIC50, pKi: −log10 of the molar value. Read-outs that look alike come from different tables or passages of the source. Bridge positions count the residues as written; N and C are the ends. Square brackets hold non-standard residues; d marks the D form. Peptide text beside a SMILES is read from it. hCys = N[C@@H](CCS)C(=O)O
Target: T1, bovine trypsin (Bos taurus, UniProt P00760)
T1 sequence (P00760 24-246): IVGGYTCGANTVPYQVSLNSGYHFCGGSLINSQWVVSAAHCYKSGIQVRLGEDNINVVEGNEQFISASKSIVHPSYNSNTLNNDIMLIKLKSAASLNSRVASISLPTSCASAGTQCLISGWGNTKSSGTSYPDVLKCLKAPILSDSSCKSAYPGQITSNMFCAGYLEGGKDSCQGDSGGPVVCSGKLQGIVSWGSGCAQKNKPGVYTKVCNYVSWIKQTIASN
Assay: Trypsin inhibitory activity of peptides (BApNA hydrolysis, OD405; IC50, Ki, residual activity)
Format: biochemical
Conditions: for pIC50: trypsin 50 nM, BApNA 1.22 mM, read-out: IC50
Method: The substrates N-succinyl-Ala-Ala-Pro-Phe-p-nitroaniline (AAPFpNA), Nα—Benzoyl-L-arginine-4-nitroaniline hydrochloride (BApNA) and N-succinyl-[…] (AAApNA) are used in competitive binding reaction to determine the inhibitory activities against α-chymotrypsin, bovine trypsin, and porcine pancreatic elastase, respectively. Experiments for α-chymotrypsin and bovine trypsin inhibition were measured in 20 mM CaCl2, 50 mM Tris-HCl buffer (pH 7.8), and that for porcine elastase inhibition was measured in 50 mM Tris-HCl buffer (pH 8.0). The concentration of the peptide was measured using optical density (OD) at 280 nm. The Michaelis constant (Km) of the enzyme hydrolysis substrate is calculated from the initial rate of substrate hydrolysis at 405 nm. The absorbance value of the substrate was measured at 405 nm after complete hydrolysis. All data were processed using nonlinear regression.
• (1) Added 200 μL of reaction buffer (20 mM CaCl2 and 50 mM Tris-HCl, pH 7.8) into the 96-well plate, and preheated at 37° C. for 15 min. Then added 5 μL of different concentrations of substrates (p-Nitroanilide, pNA, 0.5% in DMSO), and mixed by centrifugation at 500 rpm for 1 min. […] The experiment was performed in triplicate. The standard curve was obtained by plotting the OD405 nm value with pNA concentration. • (2) Added 190 μL of reaction buffer (20 mM CaCl2 and 50 mM Tris-HCl, pH 7.8) and 10 μL of 1 μM trypsin into the 96-well plate, and preheated at 37° C. for 15 min. Then added 5 μL of different concentrations of substrates (BApNA, 0.5% in DMSO) and mixed by centrifugation at 500 rpm for 1 min. […] The experiment was performed in triplicate. The corresponding curve was obtained by plotting the OD405 nm value with time. Divided the slope of the curve by the slope of the standard curve and the enzyme concentration to obtain the initial velocity V0 (mM/(min*mM protein). Plotted the initial velocity V0 with the concentration of substrate BApNA using Prism software, and the Michaelis constant Km value of trypsin hydrolyzing BApNA was obtained.
• (1) Added a total 190 μL of reaction buffer (20 mM CaCl2 and 50 mM Tris-HCl, pH 7.8) along with different concentrations of anti-trypsin peptides (BTs) into the pre-cooled 96-well plate, followed by preheating at 37° C., and spined down at 500 rpm for 5 min. Next added 10 μL of 1 μM trypsin, incubated at 37° C., and then spined down at 500 rpm for 10 min. Finally, added 5 μL of 50 mM BApNA, and mixed by centrifugation at 500 rpm for 1 min. The plate was incubated at 37° C. for 260 min, and the absorbance value at 405 nm was measured. The experiment was performed in triplicate. The blank control only contained the reaction buffer and the substrate as the minimum absorption value (Min OD405 nm). The negative control only contained the reaction buffer, the enzyme and the substrate as the maximum absorption value (Max OD405 nm). • (2) In the reaction system of 205 μL, the final concentrations of trypsin and BApNA were 50 nM and 1.22 mM, respectively. • (3) Data statistics
Residual activity of the enzyme (%)=(1−(Max OD405 nm−Sample OD405 nm)/(Max OD405 nm−Min OD405 nm))*100
Plotted the residual activity of the enzyme with […] to obtain the half inhibitory concentration (IC50) of BTs scaffold against trypsin. Then, substituted it into the formula Ki=IC50/(1+S/Km) (S, IC50 and Km were substrate concentration, half inhibitory concentration and Michaelis constant, respectively) to obtain the inhibition constant Ki of BTs scaffold against trypsin.

[1] = Ki=IC50/(1+S/Km), Km 0.33 mM, read-out: Ki

CC[C@H](C)[C@@H]1NC(=O)[C@@H]2CCCN2C(=O)[C@@H]2CCCN2C(=O)[C@H]([C@@H](C)CC)NC(=O)[C@H](CO)NC(=O)[C@H](CCCCN)NC(=O)[C@H]([C@@H](C)O)NC(=O)[C@H](C)NC(=O)[C@H](CCCNC(=N)N)NC(=O)CNC(=O)[C@@H](N)CSSC[C@@H](C(=O)O)NC(=O)[C@H](C)NC1=O [BT13] (H-CGRATKSIPPIAC-OH; disulfide 1-13; N-terminus and C-terminus assumed)
inhibitory activity against trypsin (in words): still maintained good inhibitory activity against trypsin

CC[C@H](C)[C@@H]1NC(=O)[C@@H]2CCCN2C(=O)[C@@H]2CCCN2C(=O)[C@H]([C@@H](C)CC)NC(=O)[C@H](CO)NC(=O)[C@H](CCCCN)NC(=O)[C@H]([C@@H](C)O)NC(=O)[C@H](C)NC(=O)[C@H](CCCNC(=N)N)NC(=O)[C@H](CCC(N)=O)NC(=O)[C@@H](N)CSSC[C@@H](C(=O)N[C@@H](Cc2ccccc2)C(=O)O)NC1=O [BT79] (H-CQRATKSIPPICF-OH; disulfide 1-12; N-terminus and C-terminus assumed)
inhibitory activity against trypsin (in words): excellent trypsin inhibitory activities
pKi [1]: 8.00
pIC50: 7.30

CC[C@H](C)[C@@H]1NC(=O)[C@H](CO)NC(=O)[C@H](CCCCN)NC(=O)[C@H]([C@@H](C)O)NC(=O)[C@H](Cc2c[nH]c3ccccc23)NC(=O)[C@H](CCCNC(=N)N)NC(=O)CNC(=O)[C@@H](N)CSSC[C@@H](C(=O)O)NC(=O)[C@H](Cc2ccccc2)NC(=O)[C@H](C)NC(=O)[C@@H]2CCCN2C(=O)[C@@H]2CCCN2C1=O [BT39] (H-CGRWTKSIPPAFC-OH; disulfide 1-13 (inferred); N-terminus and C-terminus assumed)
pIC50: < 4.30

CC[C@H](C)[C@@H]1NC(=O)[C@@H]2CCCN2C(=O)[C@@H]2CCCN2C(=O)[C@H]([C@@H](C)CC)NC(=O)[C@H](CO)NC(=O)[C@H](CCCCN)NC(=O)[C@H]([C@@H](C)O)NC(=O)[C@H](C)NC(=O)[C@H](CCCNC(=N)N)NC(=O)[C@H](CCCNC(=N)N)NC(=O)[C@@H](N)CSSC[C@@H](C(=O)N[C@@H](Cc2ccccc2)C(=O)O)NC1=O [BT76] (H-CRRATKSIPPICF-OH; disulfide 1-12; N-terminus and C-terminus assumed)
inhibitory activity against trypsin (in words): excellent trypsin inhibitory activities
pKi [1]: 8.00
pIC50: 7.30

CC[C@H](C)[C@@H]1NC(=O)[C@@H]2CCCN2C(=O)[C@@H]2CCCN2C(=O)[C@H]([C@@H](C)CC)NC(=O)[C@H](CO)NC(=O)[C@H](CCCCN)NC(=O)[C@H]([C@@H](C)O)NC(=O)[C@H](CCC(=O)O)NC(=O)[C@H](CCCNC(=N)N)NC(=O)CNC(=O)[C@@H](N)CSSC[C@@H](C(=O)N[C@@H](Cc2ccccc2)C(=O)O)NC1=O [BT58] (H-CGRETKSIPPICF-OH; disulfide 1-12; N-terminus and C-terminus assumed)
pKi [1]: 7.52
pIC50: 6.92

CC[C@H](C)[C@@H]1NC(=O)[C@@H]2CCCN2C(=O)[C@@H]2CCCN2C(=O)[C@H]([C@@H](C)CC)NC(=O)[C@H](CO)NC(=O)[C@H](CCCCN)NC(=O)[C@H]([C@@H](C)O)NC(=O)[C@H](C)NC(=O)[C@H](CCCNC(=N)N)NC(=O)CNC(=O)[C@@H](N)CCSSCC[C@@H](C(=O)O)NC(=O)CNC(=O)[C@H](Cc2ccccc2)NC(=O)[C@H](C)NC1=O [BT33] (H-[hCys]GRATKSIPPIAFG[hCys]-OH; disulfide 1-15; N-terminus assumed)
inhibitory activity against trypsin (in words): still maintained good inhibitory activity against trypsin

CC[C@H](C)[C@@H]1NC(=O)[C@@H]2CCCN2C(=O)[C@@H]2CCCN2C(=O)[C@H]([C@@H](C)CC)NC(=O)[C@H](CO)NC(=O)[C@H](CCCCN)NC(=O)[C@H]([C@@H](C)O)NC(=O)[C@H](C)NC(=O)[C@H](CCCNC(=N)N)NC(=O)CNC(=O)[C@@H](N)CSSC[C@@H](C(=O)O)NC(=O)[C@H](Cc2ccccc2)NC1=O [BT30] (H-CGRATKSIPPIFC-OH; disulfide 1-13 (inferred); N-terminus and C-terminus assumed)
pIC50: < 4.30

CC[C@H](C)[C@@H]1NC(=O)[C@H](C)NC(=O)[C@@H]2CCCN2C(=O)[C@H](CC(C)C)NC(=O)[C@H](CO)NC(=O)[C@H](CCCCN)NC(=O)[C@H]([C@@H](C)O)NC(=O)[C@H](C)NC(=O)[C@H](CCCNC(=N)N)NC(=O)CNC(=O)[C@@H](N)CSSC[C@@H](C(=O)N[C@@H](Cc2ccccc2)C(=O)O)NC1=O [BT16] (H-CGRATKSLPAICF-OH; disulfide 1-12; C-terminus assumed)
inhibitory activity against trypsin (in words): reduced their anti-trypsin activities
pKi [1]: 6.72
inhibitory activity against trypsin (in words) (listed as SEQ ID NO: 16): excellent trypsin inhibitory activities
Residual trypsin activity (peptide 0.00488 μM): 95.4 ± 4.3%
Residual trypsin activity (peptide 0.0098 μM): 96.1 ± 0.6%
Residual trypsin activity (peptide 0.0195 μM): 101.7 ± 1.2%
Residual trypsin activity (peptide 0.390 μM): 88.4 ± 2.0%
Residual trypsin activity (peptide 0.780 μM): 59.7 ± 3.2%
Residual trypsin activity (peptide 0.98 μM): 42.2 ± 3.3%
Residual trypsin activity (peptide 2.439 μM): 0.8 ± 0.1%
Residual trypsin activity (peptide 4.88 μM): 0.0 ± 0.2%

CC[C@H](C)[C@@H]1NC(=O)[C@H](CO)NC(=O)[C@H](CCCCN)NC(=O)[C@H]([C@@H](C)O)NC(=O)[C@H](Cc2c[nH]c3ccccc23)NC(=O)CNC(=O)[C@@H](N)CSSC[C@@H](C(=O)O)NC(=O)[C@@H]2CCCN2C(=O)[C@H](CCCCN)NC(=O)[C@@H]2CCCN2C(=O)[C@@H]2CCCN2C1=O [BT37] (H-CGWTKSIPPKPC-OH; disulfide 1-12)
pIC50: < 4.30

CC[C@H](C)[C@@H]1NC(=O)[C@@H]2CCCN2C(=O)[C@@H]2CCCN2C(=O)[C@H]([C@@H](C)CC)NC(=O)[C@H](CO)NC(=O)[C@H](CCCCN)NC(=O)[C@H]([C@@H](C)O)NC(=O)[C@H](C)NC(=O)[C@H](CCCNC(=N)N)NC(=O)CNC(=O)[C@@H](N)CSSC[C@@H](C(=O)N[C@@H](Cc2ccccc2)C(=O)N2CCC[C@H]2C(=O)N[C@@H](CC(=O)O)C(=O)O)NC1=O [BT5] (H-CGRATKSIPPICFPD-OH; disulfide 1-12; N-terminus and C-terminus assumed)
inhibitory activity against trypsin (in words): enhanced trypsin inhibitory activity
Residual trypsin activity (peptide 0.00098 μM): 104.0 ± 5.2%
Residual trypsin activity (peptide 0.002439 μM): 108.1 ± 2.6%
Residual trypsin activity (peptide 0.00488 μM): 103.7 ± 5.2%
Residual trypsin activity (peptide 0.0488 μM): 83.1 ± 0.4%
Residual trypsin activity (peptide 0.098 μM): 75.2 ± 5.9%
Residual trypsin activity (peptide 0.488 μM): 3.0 ± 0.2%
Residual trypsin activity (peptide 0.98 μM): 0.7 ± 0.1%
pKi (read-out: inhibition constant (Ki) towards trypsin): 7.52
